Structures are written as SMILES. Like-named read-outs stand apart in the source and are kept apart here.

This test deals with ATR kinase (full-length ATR) (Homo sapiens (Human), UniProt Q13535). Briefly: ATR inhibition assay (radioactive-phosphate incorporation). It is filed as biochemical. The procedure:
Compounds were screened for their ability to inhibit ATR kinase using a radioactive-phosphate incorporation assay. Assays were carried out in a mixture of 50 mM Tris/HCl (pH 7.5), 10 mM MgCl2 and 1 mM DTT. Final substrate concentrations were 10 μM [γ-33P]ATP (3mCi 33P ATP/mmol ATP, Perkin Elmer) and 800 μM target peptide ([…]) (SEQ ID NO:1).
Assays were carried out at 25° C. in the presence of 5 nM full-length ATR. An assay stock buffer solution was prepared containing all of the reagents listed above, with the exception of ATP and the test compound of interest. 13.5 μL of the stock solution was placed in a 96 well plate followed by addition of 2 μL of DMSO stock containing serial dilutions of the test compound (typically starting from a final concentration of 15 μM with 3-fold serial dilutions) in duplicate (final DMSO concentration 7%). The plate was pre-incubated for 10 minutes at 25° C. and the reaction initiated by addition of 15 μL [γ-33P]ATP (final concentration 10 μM).
The reaction was stopped after […] by the addition of 30 μL 0.1M phosphoric acid containing 2 mM ATP. A multiscreen phosphocellulose filter 96-well plate (Millipore, Cat no. MAPHN0B50) was pretreated with 100 μL 0.2M phosphoric acid prior to the addition of […] of the stopped assay mixture. The plate was washed with 5×200 μL 0.2M phosphoric acid. After drying, 100 μL Optiphase ‘SuperMix’ liquid scintillation cocktail (Perkin Elmer) was added to the well prior to scintillation counting (1450 Microbeta Liquid Scintillation Counter, Wallac).
After removing mean background values for all of the data points, Ki(app) data were calculated from non-linear regression analysis of the initial rate data using the Prism software package (GraphPad Prism version 3.0cx for Macintosh, GraphPad Software, San Diego Calif., USA).

[1] abbreviates: Ki(app), 5 nM full-length ATR, 10 μM ATP, 25° C.

Chain of ATR kinase (full-length ATR) (Q13535 whole entry): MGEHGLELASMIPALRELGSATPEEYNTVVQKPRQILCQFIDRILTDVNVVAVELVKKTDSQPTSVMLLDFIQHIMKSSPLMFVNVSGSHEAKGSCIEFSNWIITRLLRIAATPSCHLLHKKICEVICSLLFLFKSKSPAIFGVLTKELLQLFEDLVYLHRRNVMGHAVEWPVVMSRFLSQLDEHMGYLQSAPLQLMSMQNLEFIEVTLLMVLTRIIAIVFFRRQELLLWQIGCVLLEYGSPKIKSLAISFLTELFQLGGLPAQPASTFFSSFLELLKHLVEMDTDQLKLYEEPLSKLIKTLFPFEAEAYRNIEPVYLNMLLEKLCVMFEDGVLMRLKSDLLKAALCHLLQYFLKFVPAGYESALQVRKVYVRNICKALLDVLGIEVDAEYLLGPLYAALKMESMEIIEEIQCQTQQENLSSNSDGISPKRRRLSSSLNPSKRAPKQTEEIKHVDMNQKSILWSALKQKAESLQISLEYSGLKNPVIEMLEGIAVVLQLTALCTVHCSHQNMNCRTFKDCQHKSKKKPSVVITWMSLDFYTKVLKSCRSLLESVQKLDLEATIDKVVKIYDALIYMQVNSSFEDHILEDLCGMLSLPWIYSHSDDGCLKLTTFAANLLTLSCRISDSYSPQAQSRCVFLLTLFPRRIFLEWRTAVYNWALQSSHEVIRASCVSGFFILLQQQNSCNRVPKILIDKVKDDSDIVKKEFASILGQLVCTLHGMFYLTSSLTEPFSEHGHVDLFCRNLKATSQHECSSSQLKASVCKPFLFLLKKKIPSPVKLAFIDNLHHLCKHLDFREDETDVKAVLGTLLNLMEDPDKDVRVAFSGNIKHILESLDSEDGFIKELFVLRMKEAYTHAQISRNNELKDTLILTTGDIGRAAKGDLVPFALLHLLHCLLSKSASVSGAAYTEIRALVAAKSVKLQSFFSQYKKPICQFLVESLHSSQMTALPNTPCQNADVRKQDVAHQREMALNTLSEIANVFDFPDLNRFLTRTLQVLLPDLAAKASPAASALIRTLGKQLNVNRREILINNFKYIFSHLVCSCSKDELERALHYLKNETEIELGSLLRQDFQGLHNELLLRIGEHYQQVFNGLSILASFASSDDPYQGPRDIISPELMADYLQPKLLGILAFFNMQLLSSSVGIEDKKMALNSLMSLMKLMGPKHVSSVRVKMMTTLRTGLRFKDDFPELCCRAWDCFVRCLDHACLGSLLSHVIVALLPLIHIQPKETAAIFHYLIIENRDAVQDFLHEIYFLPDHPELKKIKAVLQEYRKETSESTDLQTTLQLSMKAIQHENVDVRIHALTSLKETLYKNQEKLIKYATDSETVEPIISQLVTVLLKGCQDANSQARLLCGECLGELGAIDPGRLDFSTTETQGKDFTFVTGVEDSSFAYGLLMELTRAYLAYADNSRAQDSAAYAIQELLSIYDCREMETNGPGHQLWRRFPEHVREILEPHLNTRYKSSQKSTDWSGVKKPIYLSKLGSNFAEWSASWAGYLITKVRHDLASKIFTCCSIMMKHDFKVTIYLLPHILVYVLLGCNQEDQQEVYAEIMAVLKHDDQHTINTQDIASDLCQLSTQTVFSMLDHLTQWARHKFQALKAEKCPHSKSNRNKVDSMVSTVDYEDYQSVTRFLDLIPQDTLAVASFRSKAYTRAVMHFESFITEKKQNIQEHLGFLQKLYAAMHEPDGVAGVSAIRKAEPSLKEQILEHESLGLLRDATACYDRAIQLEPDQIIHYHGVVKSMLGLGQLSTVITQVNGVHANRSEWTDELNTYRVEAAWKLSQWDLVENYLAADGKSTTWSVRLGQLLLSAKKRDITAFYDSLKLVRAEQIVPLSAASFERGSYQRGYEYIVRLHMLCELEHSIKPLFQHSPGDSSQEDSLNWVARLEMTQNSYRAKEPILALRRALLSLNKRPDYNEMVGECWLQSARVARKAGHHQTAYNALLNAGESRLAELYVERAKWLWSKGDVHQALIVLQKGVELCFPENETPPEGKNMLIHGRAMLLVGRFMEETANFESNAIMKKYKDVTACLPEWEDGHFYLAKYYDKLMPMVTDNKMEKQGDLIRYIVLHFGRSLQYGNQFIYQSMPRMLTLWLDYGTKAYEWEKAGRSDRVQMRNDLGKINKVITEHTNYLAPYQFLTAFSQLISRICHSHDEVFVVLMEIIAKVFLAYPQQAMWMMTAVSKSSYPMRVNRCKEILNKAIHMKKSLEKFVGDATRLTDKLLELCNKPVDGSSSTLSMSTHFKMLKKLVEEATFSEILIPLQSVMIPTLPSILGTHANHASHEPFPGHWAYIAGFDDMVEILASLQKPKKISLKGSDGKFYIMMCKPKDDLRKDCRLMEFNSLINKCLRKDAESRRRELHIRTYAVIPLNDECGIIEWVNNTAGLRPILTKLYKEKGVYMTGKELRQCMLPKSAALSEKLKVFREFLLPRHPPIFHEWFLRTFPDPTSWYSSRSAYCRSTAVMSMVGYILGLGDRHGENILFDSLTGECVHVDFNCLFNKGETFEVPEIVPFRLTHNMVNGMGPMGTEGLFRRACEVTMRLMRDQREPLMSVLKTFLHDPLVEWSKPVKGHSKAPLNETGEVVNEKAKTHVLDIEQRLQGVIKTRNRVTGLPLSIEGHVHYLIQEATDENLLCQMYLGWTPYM

In the case of `C[C@H]1CN(C2COC2)CCN1c1ccncc1NC(=O)c1c(N)nn2cc(F)cnc12` [I-N-24, (S)-2-amino-6-fluoro-N-(4-(2-methyl-4-(oxetan-3-yl)piperazin-1-yl)pyridin-3-yl)pyrazolo[1,5-a]pyrimidine-3-carboxamide], the Ki under setting [1] was in the range of 10 to 1000 nM. On the same count and under the same terms, the result for `C[C@H]1CN(C(=O)C2CCN(c3c(F)cncc3NC(=O)c3c(N)nn4cc(F)cnc34)CC2)CCN1` [I-G-61, (S)-2-amino-6-fluoro-N-(5-fluoro-4-(4-(3-methylpiperazine-1-carbonyl)piperidin-1-yl)pyridin-3-yl)pyrazolo[1,5-a]pyrimidine-3-carboxamide] reads 10 to 1000 nM; that for `N#CCc1cnc2c(C(=O)Nc3cnccc3OC3CCCNC3)c(N)nn2c1` (racemic) [I-O-2, (R,S)-2-amino-6-(cyanomethyl)-N-(4-(piperidin-3-yloxy)pyridin-3-yl)pyrazolo[1,5-a]pyrimidine-3-carboxamide], less than 10 nM. Still for that read-out and setting: the result for `CN1CCN(C(=O)N2CCC(c3ccncc3NC(=O)c3c(N)nn4cc(F)cnc34)CC2)CC1` [I-C-17, 2-amino-6-fluoro-N-(4-(1-(4-methylpiperazine-1-carbonyl)piperidin-4-yl)pyridin-3-yl)pyrazolo[1,5-a]pyrimidine-3-carboxamide] reads 10 to 1000 nM.

As to `Nc1nn2cc(F)cnc2c1C(=O)Nc1cnccc1N1CCN(C2COC2)C2CC21` (stereo not drawn) [I-N-112, 2-amino-6-fluoro-N-(4-(5-(oxetan-3-yl)-2,5-diazabicyclo[4.1.0]heptan-2-yl)pyridin-3-yl)pyrazolo[1,5-a]pyrimidine-3-carboxamide], the Ki was 1000 to 5000 nM. In the case of `CN(C)CCCOc1ccncc1NC(=O)c1c(N)nn2cc(Cl)cnc12` [I-O-52, 2-amino-6-chloro-N-(4-(3-(dimethylamino)propoxy)pyridin-3-yl)pyrazolo[1,5-a]pyrimidine-3-carboxamide], the Ki lay within 1000 to 5000 nM. As for `Nc1nn2cc(Cl)cnc2c1C(=O)Nc1cnccc1OCCN1CCOCC1` [I-O-60, 2-amino-6-chloro-N-(4-(2-morpholinoethoxy)pyridin-3-yl)pyrazolo[1,5-a]pyrimidine-3-carboxamide], the Ki under setting [1] was in the range of 10 to 1000 nM.

`CN1CCN(c2ccncc2NC(=O)c2c(N)nn3cc(Cl)cnc23)CC1(C)C` [I-N-53, 2-amino-6-chloro-N-(4-(3,3,4-trimethylpiperazin-1-yl)pyridin-3-yl)pyrazolo[1,5-a]pyrimidine-3-carboxamide]: the Ki under setting [1] lay in the range of 10 to 1000 nM. On the same count and under the same terms, the result for `CN1CCN(C(=O)C2CCN(c3c(F)cncc3NC(=O)c3c(N)nn4cc(F)cnc34)CC2)CC1(C)C` [I-G-15, 2-amino-6-fluoro-N-(5-fluoro-4-(4-(3,3,4-trimethylpiperazine-1-carbonyl)piperidin-1-yl)pyridin-3-yl)pyrazolo[1,5-a]pyrimidine-3-carboxamide] reads 10 to 1000 nM. Still for that read-out and setting: as for `Nc1nn2cc(F)cnc2c1C(=O)Nc1cnccc1-n1ccnc1` [I-N-7, N-(4-(1H-imidazol-1-yl)pyridin-3-yl)-2-amino-6-fluoropyrazolo[1,5-a]pyrimidine-3-carboxamide], the figure is 10 to 1000 nM; as for `Cc1ccncc1NC(=O)c1c(N)nn2cc(CC#N)cnc12` [I-C-3, 2-amino-6-(cyanomethyl)-N-(4-methylpyridin-3-yl)pyrazolo[1,5-a]pyrimidine-3-carboxamide], 10 to 1000 nM. On the same count and under the same terms, the result for `N#CC1CN(C(=O)C2CCN(c3c(F)cncc3NC(=O)c3c(N)nn4cc(F)cnc34)CC2)C1` [I-G-76, 2-amino-N-(4-(4-(3-cyanoazetidine-1-carbonyl)piperidin-1-yl)-5-fluoropyridin-3-yl)-6-fluoropyrazolo[1,5-a]pyrimidine-3-carboxamide] reads 10 to 1000 nM; that for `CN1CCC(N(C)S(=O)(=O)C2CCN(c3c(F)cncc3NC(=O)c3c(N)nn4cc(F)cnc34)CC2)CC1` [I-N-148, 2-amino-6-fluoro-N-(5-fluoro-4-(4-(N-methyl-N-(1-methylpiperidin-4-yl)sulfamoyl)piperidin-1-yl)pyridin-3-yl)pyrazolo[1,5-a]pyrimidine-3-carboxamide], 10 to 1000 nM. On to `Nc1nn2cc(F)cnc2c1C(=O)Nc1cnccc1-c1cccnc1Cl` [I-C-37, 2-amino-N-(2-chloro-[3,4′-bipyridin]-3′-yl)-6-fluoropyrazolo[1,5-a]pyrimidine-3-carboxamide], for which the Ki fell in the range of 1000 to 5000 nM. Turning to `N#CC1CN(C(=O)C2CCN(c3ccncc3NC(=O)c3c(N)nn4cc(F)cnc34)CC2)C1` [I-G-81, 2-amino-N-(4-(4-(3-cyanoazetidine-1-carbonyl)piperidin-1-yl)pyridin-3-yl)-6-fluoropyrazolo[1,5-a]pyrimidine-3-carboxamide], the Ki under setting [1] was 10 to 1000 nM. Take `CCC(C#N)c1cnc2c(C(=O)Nc3cnccc3OC)c(N)nn2c1` (stereo not drawn) [I-O-20, 2-amino-6-(1-cyanopropyl)-N-(4-methoxypyridin-3-yl)pyrazolo[1,5-a]pyrimidine-3-carboxamide]: under setting [1], the Ki fell in the range of 10 to 1000 nM. On the same count and under the same terms, the result for `COc1ccncc1NC(=O)c1c(N)nn2cc(CC#N)cnc12` [I-O-26, 2-amino-6-(cyanomethyl)-N-(4-methoxypyridin-3-yl)pyrazolo[1,5-a]pyrimidine-3-carboxamide] reads less than 10 nM. The same measure, in the same setting: as for `CN1CCN(CC2CCN(c3c(F)cncc3NC(=O)c3c(N)nn4cc(C5(C#N)CC5)cnc34)CC2)CC1` [I-N-192, 2-amino-6-(1-cyanocyclopropyl)-N-(5-fluoro-4-(4-((4-methylpiperazin-1-yl)methyl)piperidin-1-yl)pyridin-3-yl)pyrazolo[1,5-a]pyrimidine-3-carboxamide], the figure is 10 to 1000 nM; as for `CNC1CCN(c2ccncc2NC(=O)c2c(N)nn3cc(Cl)cnc23)CC1` [I-N-87, 2-amino-6-chloro-N-(4-(4-(methylamino)piperidin-1-yl)pyridin-3-yl)pyrazolo[1,5-a]pyrimidine-3-carboxamide], 10 to 1000 nM.

For `N#CCc1cnc2c(C(=O)Nc3cnccc3Oc3ccccc3)c(N)nn2c1` [I-O-25, 2-amino-6-(cyanomethyl)-N-(4-phenoxypyridin-3-yl)pyrazolo[1,5-a]pyrimidine-3-carboxamide], under setting [1], the Ki is less than 10 nM. Still for that read-out and setting: as for `Nc1nn2cc(F)cnc2c1C(=O)Nc1cnccc1-c1ccc(C(=O)N2CCN(C3COC3)CC2)cc1` [I-C-49, 2-amino-6-fluoro-N-(4-(4-(4-(oxetan-3-yl)piperazine-1-carbonyl)phenyl)pyridin-3-yl)pyrazolo[1,5-a]pyrimidine-3-carboxamide], the figure is 10 to 1000 nM. For the compound `Nc1nn2cc(F)cnc2c1C(=O)Nc1cncc(F)c1N1CCC(C(=O)N2CCN3CCC2C3)CC1` (stereo not drawn) [I-G-46, N-(4-(4-(1,4-diazabicyclo[3.2.1]octane-4-carbonyl)piperidin-1-yl)-5-fluoropyridin-3-yl)-2-amino-6-fluoropyrazolo[1,5-a]pyrimidine-3-carboxamide], the Ki lay within 1000 to 5000 nM. With `COc1cncc(NC(=O)c2c(N)nn3cc(F)cnc23)c1C1CC1` [I-C-84, 2-amino-N-(4-cyclopropyl-5-methoxypyridin-3-yl)-6-fluoropyrazolo[1,5-a]pyrimidine-3-carboxamide], the Ki under setting [1] is 10 to 1000 nM. The same measure, in the same setting: the result for `CN1CCN(c2c(Cl)cncc2NC(=O)c2c(N)nn3cc(F)cnc23)CC1` [I-N-85, 2-amino-N-(5-chloro-4-(4-methylpiperazin-1-yl)pyridin-3-yl)-6-fluoropyrazolo[1,5-a]pyrimidine-3-carboxamide] reads 10 to 1000 nM.

These data come from patent publication US10392391B2 (Vertex Pharmaceuticals Incorporated, priority 2012, dated 2019).
